Measured values taken from PubChem BioAssay AID743026 (Vanderbilt Specialized Chemistry Center, 2013).
Active and inactive are the calls of the source.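 How the source made its calls: active means IC50 under 10 µM against human M5, lowering the acetylcholine-driven calcium signal; inactive means the rest.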

Biological target: Muscarinic acetylcholine receptor M5 (Homo sapiens) (UniProt P08912)
Assay: M5 muscarinic receptor negative allosteric modulators, dose response, cell-based, concentration-response curves, human M5 (AID 743026)
Details: CHO-K1 hM5, ACh EC80 calcium flux, Fluo-4

Chain of Muscarinic acetylcholine receptor M5 (Homo sapiens) (P08912 whole entry, looked up): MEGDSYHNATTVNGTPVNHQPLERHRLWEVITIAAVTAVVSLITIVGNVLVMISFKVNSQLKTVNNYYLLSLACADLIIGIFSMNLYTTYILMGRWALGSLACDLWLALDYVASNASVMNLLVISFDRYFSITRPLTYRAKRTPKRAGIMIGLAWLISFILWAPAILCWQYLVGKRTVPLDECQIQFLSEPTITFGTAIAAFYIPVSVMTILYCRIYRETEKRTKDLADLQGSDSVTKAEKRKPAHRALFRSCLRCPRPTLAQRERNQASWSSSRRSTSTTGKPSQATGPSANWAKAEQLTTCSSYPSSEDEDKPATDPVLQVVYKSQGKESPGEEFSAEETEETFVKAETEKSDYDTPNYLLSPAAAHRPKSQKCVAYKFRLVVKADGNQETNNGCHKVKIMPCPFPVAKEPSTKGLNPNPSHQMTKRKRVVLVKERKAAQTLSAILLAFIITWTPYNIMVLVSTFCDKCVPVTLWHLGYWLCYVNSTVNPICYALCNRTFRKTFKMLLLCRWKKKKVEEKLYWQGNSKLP

IC50	SMILES
3.43 µM	O=C(c1ccc(F)cc1)N1CCN2C(=O)c3ccccc3C12c1ccccc1 (centres undefined)
2.07 µM	O=C(c1ccc(C(F)(F)F)cc1)N1CCN2C(=O)c3ccccc3C12c1ccc(Cl)cc1 (centres undefined)
4.91 µM	O=C(c1cccc(C(F)(F)F)c1)N1CCN2C(=O)c3ccccc3C12c1ccc(Cl)cc1 (centres undefined)
4.04 µM	Cc1ccc(C23c4ccccc4C(=O)N2CCN3C(=O)c2ccc(SC(F)(F)F)cc2)cc1 (centres undefined)
1.29 µM	O=C(c1ccc(SC(F)(F)F)cc1)N1CCN2C(=O)c3ccccc3C12c1ccc(F)cc1 (centres undefined)
1.02 µM	O=C(c1ccc(F)c(F)c1)N1CCN2C(=O)c3ccccc3C12c1ccccc1 (centres undefined)
3.1 µM	O=C(c1ccc(SC(F)(F)F)cc1)N1CCN2C(=O)c3ccccc3C12c1ccc(Cl)cc1 (centres undefined)
1.51 µM	CSc1ccc(C23c4ccccc4C(=O)N2CCN3C(=O)c2ccc(F)c(F)c2)cc1 (centres undefined)
2.12 µM	O=C(c1ccc2c(c1)OCO2)N1CCN2C(=O)c3ccccc3C12c1ccc(Cl)cc1 (centres undefined)
0.79 µM	CC(C)Oc1ccc(C(=O)N2CCN3C(=O)c4ccccc4C23c2ccc(Cl)cc2)cc1 (centres undefined)
3.84 µM	O=C(c1cc(F)cc(F)c1)N1CCN2C(=O)c3ccccc3C12c1ccccc1 (centres undefined)
8.06 µM	COc1ccc(C23c4ccccc4C(=O)N2CCN3C(=O)c2ccc(SC(F)(F)F)cc2)cc1 (centres undefined)
1.07 µM	O=C(c1cc(F)cc(F)c1)N1CCN2C(=O)c3ccccc3C12c1ccc(Cl)cc1 (centres undefined)
3.47 µM	Cc1ccc(C23c4ccccc4C(=O)N2CCN3C(=O)c2ccc(OC(F)(F)F)cc2)cc1 (centres undefined)
2.34 µM	Cc1ccc(C23c4ccccc4C(=O)N2CCN3C(=O)c2cc(F)cc(F)c2)cc1 (centres undefined)
1.95 µM	O=C(c1ccc(C(F)(F)F)cc1)N1CCN2C(=O)c3ccccc3C12c1ccccc1 (centres undefined)
4.16 µM	Cc1ccc(C(=O)N2CCN3C(=O)c4ccccc4C23c2ccc(Cl)cc2)cc1 (centres undefined)
6.74 µM	COc1ccc(C23c4ccccc4C(=O)N2CCN3C(=O)c2ccc(OC(F)(F)F)cc2)cc1 (centres undefined)
6.58 µM	COc1cccc(C(=O)N2CCN3C(=O)c4ccccc4C23c2ccc(Cl)cc2)c1 (centres undefined)
2.62 µM	Cc1ccc(C23c4ccccc4C(=O)N2CCN3C(=O)c2ccc(F)c(F)c2)cc1 (centres undefined)
1.26 µM	COc1ccc(C23c4ccccc4C(=O)N2CCN3C(=O)c2ccc(F)c(F)c2)cc1 (centres undefined)
1.63 µM	O=C(c1ccccc1)N1CCN2C(=O)c3ccccc3C12c1ccc(Cl)cc1 (centres undefined)
2.36 µM	O=C(c1ccc(OC(F)(F)F)cc1)N1CCN2C(=O)c3ccccc3C12c1ccc(Cl)cc1 (centres undefined)
4.51 µM	O=C(c1ccc(OC(F)(F)F)cc1)N1CCN2C(=O)c3ccccc3C12c1ccccc1 (centres undefined)
2.09 µM	O=C(c1cccc(C(F)(F)F)c1)N1CCN2C(=O)c3ccccc3C12c1ccc(F)cc1 (centres undefined)
5.81 µM	O=C(c1cc(Cl)cc(Cl)c1)N1CCN2C(=O)c3ccccc3C12c1ccccc1 (centres undefined)
3 µM	O=C(c1cccc(C(F)(F)F)c1)N1CCN2C(=O)c3ccccc3C12c1ccccc1 (centres undefined)
4.9 µM	O=C(c1ccc(OC(F)F)cc1)N1CCN2C(=O)c3ccccc3C12c1ccc(Cl)cc1 (centres undefined)
8.93 µM	C=CCOc1ccc(C23c4ccccc4C(=O)N2CCN3C(=O)c2ccc(F)c(F)c2)cc1 (centres undefined)
1.39 µM	O=C(c1ccc(SC(F)(F)F)cc1)N1CCN2C(=O)c3ccccc3C12c1ccccc1 (centres undefined)

Same assay, conditions: CHO-K1 hM5, ACh EC80 calcium flux, Fluo-4; at 30 µM (top of the series)

% of max ACh response	SMILES
inactive	O=C(c1ccc(F)cc1)N1CCN2C(=O)c3ncccc3C12c1ccccc1 (centres undefined)
inactive	O=C(c1ccc(F)cc1)N1CCN2C(=O)c3ccccc3C12c1ccc(Cl)cc1 (centres undefined)
inactive	O=C(c1ccc(F)c(F)c1)N1CCCC1(c1ccccc1)c1ccc(Cl)cc1 (centres undefined)
inactive	C[C@H]1CN(C(=O)c2ccc(F)c(F)c2)[C@]2(c3ccc(Cl)cc3)c3ccccc3C(=O)N12
inactive	C[C@H]1CN[C@]2(c3ccc(Cl)cc3)c3ccccc3C(=O)N12
inactive	O=C1c2ccccc2C2(c3ccccc3)NCCN12 (centres undefined)
inactive	O=C(c1ccc(F)c(F)c1)N1CCN2C(=O)c3ncccc3C12c1ccccc1 (centres undefined)
inactive	O=C1CCC2(c3ccccc3)N1CCN2C(=O)c1ccc(F)cc1 (centres undefined)

SMILES	% of max ACh response
O=C1c2ncccc2C2(c3ccccc3)NCCN12 (centres undefined)	inactive
